Results: ChEMBL document CHEMBL1255512, “Pyrazolo[1,5-a]pyrimidine acetamides: 4-Phenyl alkyl ether derivatives as potent ligands for the 18 kDa translocator protein (TSPO)” (Bioorg Med Chem Lett, 2010)

What was measured:
[1] = Displacement of [3H]Ro151788 from CBR in rat […]; format: tissue-based
[2] = target: T1, Alpha-2C adrenergic receptor (Homo sapiens) (UniProt P18825); test: Inhibition of Alpha-2C adrenergic receptor at 10 uM
T1 sequence (whole entry): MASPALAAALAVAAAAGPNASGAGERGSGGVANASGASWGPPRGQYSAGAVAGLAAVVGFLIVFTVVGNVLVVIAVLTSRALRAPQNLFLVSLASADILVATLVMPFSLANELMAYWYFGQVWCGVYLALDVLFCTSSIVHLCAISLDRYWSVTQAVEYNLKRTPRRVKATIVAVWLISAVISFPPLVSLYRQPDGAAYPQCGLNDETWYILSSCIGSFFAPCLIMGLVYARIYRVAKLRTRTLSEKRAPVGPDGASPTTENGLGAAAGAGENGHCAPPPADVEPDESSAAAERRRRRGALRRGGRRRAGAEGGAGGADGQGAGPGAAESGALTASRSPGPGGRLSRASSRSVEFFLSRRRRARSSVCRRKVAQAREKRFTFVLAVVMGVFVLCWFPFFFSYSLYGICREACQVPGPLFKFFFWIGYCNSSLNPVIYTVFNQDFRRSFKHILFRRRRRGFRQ

[3] = target: Beta-1 adrenergic receptor (Homo sapiens) (UniProt P08588); test: Inhibition of beta-1 adrenergic receptor at 10 uM
[4] = target: T2, D(4) dopamine receptor (Homo sapiens) (UniProt P21917); test: Inhibition of D4 dopamine receptor at 10 uM
T2 sequence (whole entry): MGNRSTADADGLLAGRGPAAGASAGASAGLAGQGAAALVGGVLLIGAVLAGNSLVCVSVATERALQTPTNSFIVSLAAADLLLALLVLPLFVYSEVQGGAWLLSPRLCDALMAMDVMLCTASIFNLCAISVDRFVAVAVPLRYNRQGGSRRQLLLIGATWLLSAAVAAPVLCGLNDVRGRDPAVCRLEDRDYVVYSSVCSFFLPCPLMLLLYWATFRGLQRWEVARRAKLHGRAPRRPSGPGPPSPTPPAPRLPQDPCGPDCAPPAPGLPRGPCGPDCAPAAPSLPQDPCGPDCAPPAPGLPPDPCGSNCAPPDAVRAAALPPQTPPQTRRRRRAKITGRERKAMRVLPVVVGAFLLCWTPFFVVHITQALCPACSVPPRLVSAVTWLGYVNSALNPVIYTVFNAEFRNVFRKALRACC

[5] = target: Histamine H3 receptor (Homo sapiens) (UniProt Q9Y5N1); test: Inhibition of H3 receptor at 10 uM
[6] = target: T3, 5-hydroxytryptamine receptor 1A (Homo sapiens) (UniProt P08908); test: Inhibition of 5-HT1A receptor at 10 uM
T3 sequence (whole entry): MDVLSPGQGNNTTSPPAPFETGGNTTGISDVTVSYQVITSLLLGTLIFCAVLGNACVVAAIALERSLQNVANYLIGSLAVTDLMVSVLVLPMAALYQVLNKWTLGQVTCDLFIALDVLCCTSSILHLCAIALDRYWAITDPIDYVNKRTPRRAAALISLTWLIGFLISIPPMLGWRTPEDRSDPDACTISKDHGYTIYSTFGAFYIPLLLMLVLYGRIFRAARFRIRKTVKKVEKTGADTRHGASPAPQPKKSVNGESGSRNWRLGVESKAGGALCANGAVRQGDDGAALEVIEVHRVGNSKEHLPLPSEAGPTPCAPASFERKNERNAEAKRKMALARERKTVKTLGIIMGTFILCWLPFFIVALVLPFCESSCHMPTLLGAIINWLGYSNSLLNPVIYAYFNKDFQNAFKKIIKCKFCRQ

[7] = target: T4, 5-hydroxytryptamine receptor 2C (Homo sapiens) (UniProt P28335); test: Inhibition of 5-HT2C receptor at 10 uM
T4 sequence (whole entry): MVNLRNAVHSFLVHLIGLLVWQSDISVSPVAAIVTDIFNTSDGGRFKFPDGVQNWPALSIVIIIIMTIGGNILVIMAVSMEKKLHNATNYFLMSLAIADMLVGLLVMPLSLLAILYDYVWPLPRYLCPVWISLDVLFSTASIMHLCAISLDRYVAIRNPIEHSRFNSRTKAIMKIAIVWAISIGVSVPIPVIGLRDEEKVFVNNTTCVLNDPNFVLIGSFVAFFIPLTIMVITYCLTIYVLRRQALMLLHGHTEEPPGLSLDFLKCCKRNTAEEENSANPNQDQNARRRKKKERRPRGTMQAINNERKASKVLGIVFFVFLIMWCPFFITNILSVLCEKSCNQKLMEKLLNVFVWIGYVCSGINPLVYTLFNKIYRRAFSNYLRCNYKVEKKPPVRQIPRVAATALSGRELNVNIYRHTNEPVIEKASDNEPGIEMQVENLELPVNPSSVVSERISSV

[8] = target: 5-hydroxytryptamine receptor 6 (Homo sapiens) (UniProt P50406); test: Inhibition of 5-HT6 receptor at 10 uM
[9] = target: T5, Muscarinic acetylcholine receptor M1 (Homo sapiens) (UniProt P11229); test: Inhibition of M1 muscarinic receptor at 10 uM
T5 sequence (whole entry): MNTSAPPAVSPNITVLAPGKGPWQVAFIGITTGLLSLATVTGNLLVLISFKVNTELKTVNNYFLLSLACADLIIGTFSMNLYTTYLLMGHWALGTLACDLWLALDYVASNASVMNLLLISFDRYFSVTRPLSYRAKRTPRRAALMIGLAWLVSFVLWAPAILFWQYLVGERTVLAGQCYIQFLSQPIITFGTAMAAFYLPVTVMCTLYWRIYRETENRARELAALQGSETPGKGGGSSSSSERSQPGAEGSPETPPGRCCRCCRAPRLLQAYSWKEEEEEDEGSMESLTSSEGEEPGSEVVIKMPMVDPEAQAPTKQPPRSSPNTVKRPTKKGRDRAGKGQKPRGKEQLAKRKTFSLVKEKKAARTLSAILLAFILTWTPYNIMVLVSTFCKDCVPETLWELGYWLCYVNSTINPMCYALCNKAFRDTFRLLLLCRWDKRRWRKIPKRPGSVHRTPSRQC

[10] = target: T6, Muscarinic acetylcholine receptor M2 (Homo sapiens) (UniProt P08172); test: Inhibition of M2 muscarinic receptor at 10 uM
T6 sequence (whole entry): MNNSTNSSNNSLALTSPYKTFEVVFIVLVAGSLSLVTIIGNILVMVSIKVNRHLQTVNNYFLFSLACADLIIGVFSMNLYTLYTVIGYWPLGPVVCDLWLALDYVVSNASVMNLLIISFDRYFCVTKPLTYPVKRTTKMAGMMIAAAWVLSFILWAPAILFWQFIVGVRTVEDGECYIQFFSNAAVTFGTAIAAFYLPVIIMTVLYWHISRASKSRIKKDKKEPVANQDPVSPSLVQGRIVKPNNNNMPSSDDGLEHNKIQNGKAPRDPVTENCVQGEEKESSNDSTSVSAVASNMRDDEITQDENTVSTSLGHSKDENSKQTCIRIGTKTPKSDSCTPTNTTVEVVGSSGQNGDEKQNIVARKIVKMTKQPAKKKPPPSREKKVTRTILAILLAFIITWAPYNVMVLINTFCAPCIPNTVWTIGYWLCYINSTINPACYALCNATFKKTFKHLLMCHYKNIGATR

Sequence of Beta-1 adrenergic receptor (Homo sapiens) (P08588 whole entry, looked up): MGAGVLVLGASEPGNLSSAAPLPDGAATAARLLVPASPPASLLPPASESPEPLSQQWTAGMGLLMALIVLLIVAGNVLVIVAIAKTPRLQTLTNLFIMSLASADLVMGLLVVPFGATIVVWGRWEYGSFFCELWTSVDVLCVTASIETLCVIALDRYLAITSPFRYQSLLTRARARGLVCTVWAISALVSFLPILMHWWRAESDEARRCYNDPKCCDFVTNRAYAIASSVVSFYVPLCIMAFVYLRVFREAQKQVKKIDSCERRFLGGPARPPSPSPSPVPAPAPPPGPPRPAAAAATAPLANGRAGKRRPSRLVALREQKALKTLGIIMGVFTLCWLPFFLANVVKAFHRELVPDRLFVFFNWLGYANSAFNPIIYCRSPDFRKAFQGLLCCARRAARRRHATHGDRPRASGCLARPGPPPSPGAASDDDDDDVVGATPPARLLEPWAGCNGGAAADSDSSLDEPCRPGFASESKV
Sequence of Histamine H3 receptor (Homo sapiens) (Q9Y5N1 whole entry): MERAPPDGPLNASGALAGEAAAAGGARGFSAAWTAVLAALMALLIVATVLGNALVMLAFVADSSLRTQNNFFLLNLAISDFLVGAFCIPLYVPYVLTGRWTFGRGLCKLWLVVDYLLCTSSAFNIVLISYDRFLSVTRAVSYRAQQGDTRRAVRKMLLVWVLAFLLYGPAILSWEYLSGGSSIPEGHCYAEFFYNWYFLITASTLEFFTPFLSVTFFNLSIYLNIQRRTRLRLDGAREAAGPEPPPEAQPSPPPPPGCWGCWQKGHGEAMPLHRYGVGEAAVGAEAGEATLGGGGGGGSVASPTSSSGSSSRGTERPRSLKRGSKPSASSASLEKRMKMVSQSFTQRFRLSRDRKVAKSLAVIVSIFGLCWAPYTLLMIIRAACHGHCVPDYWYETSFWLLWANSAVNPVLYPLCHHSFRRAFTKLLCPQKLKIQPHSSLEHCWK
Sequence of 5-hydroxytryptamine receptor 6 (Homo sapiens) (P50406 whole entry): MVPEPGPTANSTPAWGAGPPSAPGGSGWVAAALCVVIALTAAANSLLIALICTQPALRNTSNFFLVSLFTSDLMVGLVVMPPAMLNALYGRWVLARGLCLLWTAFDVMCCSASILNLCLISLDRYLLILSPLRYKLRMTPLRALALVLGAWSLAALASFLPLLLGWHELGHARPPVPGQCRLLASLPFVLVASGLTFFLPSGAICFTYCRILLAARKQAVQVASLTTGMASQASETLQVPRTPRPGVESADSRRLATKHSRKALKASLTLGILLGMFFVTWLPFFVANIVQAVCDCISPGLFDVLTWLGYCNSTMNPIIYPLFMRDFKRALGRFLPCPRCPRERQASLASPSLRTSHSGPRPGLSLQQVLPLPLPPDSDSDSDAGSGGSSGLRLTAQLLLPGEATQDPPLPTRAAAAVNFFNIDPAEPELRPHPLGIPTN

Row | Compound | Ki [1] [µM] | inhibition [2] [%] | inhibition [3] [%] | inhibition [4] [%] | inhibition [5] [%] | inhibition [6] [%] | inhibition [7] [%] | inhibition [8] [%] | inhibition [9] [%] | inhibition [10] [%]
1 | CCOc1ccc(-c2nn3c(C)cc(C)nc3c2CC(=O)N(CC)CC)cc1 | > 10 | < 50 | < 50 | < 50 | < 50 | < 50 | < 50 | < 50 | < 50 | < 50
2 | CCCOc1ccc(-c2nn3c(C)cc(C)nc3c2CC(=O)N(CC)CC)cc1 | > 10 | < 50 | < 50 | < 50 | < 50 | < 50 | < 50 | < 50 | < 50 | < 50
3 | CCCCOc1ccc(-c2nn3c(C)cc(C)nc3c2CC(=O)N(CC)CC)cc1 | > 10 | < 50 | < 50 | < 50 | < 50 | < 50 | < 50 | < 50 | < 50 | < 50
4 | C#CCOc1ccc(-c2nn3c(C)cc(C)nc3c2CC(=O)N(CC)CC)cc1 | > 10 | < 50 | < 50 | < 50 | < 50 | < 50 | < 50 | < 50 | < 50 | < 50
